Laboratory results published in patent publication US9604989B2, “Imidazopyridazines as Akt kinase inhibitors” (Bayer Intellectual Property GmbH, priority 2011, dated 2017).

Columns and labels:
[1] = tested on: KPL-4 breast cancer cell line; assay: Tumor cell proliferation assay (CellTiter-Glo), KPL-4; format: cell-based; settings: Homo sapiens, KPL4, 72 h drug exposure, read-out: KLP-4 median IC50
phospho-AKT at S473 = assay: Cellular p-AKT1/2/3-S473 assay in KPL-4 cells; format: cell-based; settings: Homo sapiens, KPL4; KPL-4 breast tumour cell line, compound treatment 2 hours; read-out: pAKT-S473 median IC50
Procedure: (§1) The molecular mechanism of action was investigated in a set of experiments to assess the inhibition of the PI3K-AKT-mTOR pathway in responsive cell lines such as KPL-4 breast tumour cell line (PIK3CA^H1047R, HER2^O/E and hormone independent). The phospho-substrates of PI3K-AKT-mTOR axis were used as the read-outs to reflect pathway inhibition. Cells were seeded at 60-80% confluency per well in 96-well cell culture plates. After overnight incubation at 37° C. 5% CO2, cells were treated with compounds and vehicle at 37° C. for 2 hours. […] All measurements where at least done in duplicates and confirmed by independent repetition.
Alternatively pAKT-S473 was measured using the “Akt Duplex” of the MULTI-SPOT® Assay System (Fa. Meso Scale Discovery, Cat#N41100B-1) following manufacturers instructions. Each assay used 20 μg of protein extract and measured total AKT and p-AKT content simultaneously in one well. All measurements where at least done in duplicates and confirmed by independent repetition. Values for P-AKT are expressed as percentage of P-AKT level compared to total-AKT content of the extracts.

[2] = target: His-tagged human recombinant kinase full-length Akt2 (Homo sapiens (Human), UniProt P31751); assay: Akt2 kinase assay (Akt2 TR-FRET assay); format: biochemical; settings: 10 μM ATP, 60 min at 22° C., read-out: Akt2 median IC50
Chain of His-tagged human recombinant kinase full-length Akt2 (P31751 whole entry): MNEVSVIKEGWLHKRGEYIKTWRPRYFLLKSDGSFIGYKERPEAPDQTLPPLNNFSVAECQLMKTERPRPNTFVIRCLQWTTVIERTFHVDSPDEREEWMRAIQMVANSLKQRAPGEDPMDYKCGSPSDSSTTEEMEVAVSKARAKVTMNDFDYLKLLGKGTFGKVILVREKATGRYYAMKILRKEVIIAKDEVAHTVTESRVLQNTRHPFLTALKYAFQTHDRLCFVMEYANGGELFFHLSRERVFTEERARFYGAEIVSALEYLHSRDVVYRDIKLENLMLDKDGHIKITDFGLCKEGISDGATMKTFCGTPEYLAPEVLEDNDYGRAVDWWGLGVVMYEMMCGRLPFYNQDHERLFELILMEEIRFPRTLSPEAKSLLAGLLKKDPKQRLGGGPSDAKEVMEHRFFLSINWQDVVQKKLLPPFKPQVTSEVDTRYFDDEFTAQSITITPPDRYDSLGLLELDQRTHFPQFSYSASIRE

[3] = tested on: MCF-7 breast tumour cell line; assay: Tumor cell proliferation assay (CellTiter-Glo), MCF-7; format: cell-based; settings: Homo sapiens, MCF7, 72 h drug exposure, read-out: MCF-7 median IC50
Procedure: Biological Assay 4.0: Tumor Cell Proliferation Assays
Compounds were tested in a cell-based assay that measures the capacity of the compounds to inhibit tumour cell proliferation following a 72 h drug exposure. Cell viability is determined using CellTiter-Glow® (CTG, Promega, cat#G7571/2/3). The CellTiter-Glo® Luminescent Cell Viability Assay is a homogeneous method to determine the number of viable cells in culture.
Detection is based on using the luciferase reaction to measure the amount of ATP from viable cells. The amount of ATP in cells correlates with cell viability. Within minutes after a loss of membrane integrity, cells lose the ability to synthesize ATP, and endogenous ATPases destroy any remaining ATP; thus the levels of ATP fall precipitously.
For each cell line assayed, cells were plated onto a separate plate for determination of fluorescence at t=0 hour and t=72 hour time points. Following overnight incubation at 37° C., chemiluminescence values for the t=0 samples were determined after adding 10 μl medium and 100 μl CTG solution according to manufacture protocol. Plates for the t=72 hour time points were treated with compounds diluted into growth medium at ten times final concentration added in 10 μL to the cell culture plate. Cells were then incubated for 72 hours at 37° C. Chemiluminescence values for the t=72 hour samples were determined. […] Experiments were controlled using a reference compound as standard.

[4] = target: His-tagged human recombinant kinase full-length Akt1 (Homo sapiens (Human), UniProt P31749); assay: Akt1 kinase assay (Akt1 TR-FRET assay); format: biochemical; settings: 10 μM ATP, 60 min at 22° C., read-out: Akt1 median IC50
Chain of His-tagged human recombinant kinase full-length Akt1 (P31749 whole entry): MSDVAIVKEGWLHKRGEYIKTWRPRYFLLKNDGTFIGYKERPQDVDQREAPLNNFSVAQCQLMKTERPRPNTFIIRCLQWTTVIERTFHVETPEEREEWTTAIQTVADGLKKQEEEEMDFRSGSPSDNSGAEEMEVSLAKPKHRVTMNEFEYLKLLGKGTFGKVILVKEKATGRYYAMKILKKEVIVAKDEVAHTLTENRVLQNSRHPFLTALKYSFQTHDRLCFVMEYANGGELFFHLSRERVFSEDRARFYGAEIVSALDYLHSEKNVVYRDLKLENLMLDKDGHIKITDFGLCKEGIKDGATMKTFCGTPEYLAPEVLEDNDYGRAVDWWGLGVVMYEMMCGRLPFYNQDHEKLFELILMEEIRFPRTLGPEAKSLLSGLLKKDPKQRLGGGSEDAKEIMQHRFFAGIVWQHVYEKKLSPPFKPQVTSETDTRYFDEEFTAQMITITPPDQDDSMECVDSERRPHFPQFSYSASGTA

p-4E-BP1 at T70 = assay: Cellular p-4E-BP1-T70 assay in KPL-4 cells; format: cell-based; settings: Homo sapiens, KPL4; KPL-4 breast tumour cell line, compound treatment 2 hours; read-out: P4EBP1-T70 median IC50
Procedure: as §1

SMILES | IC50 [1] | IC50 (phospho-AKT at S473) | IC50 [2] | IC50 [3] | IC50 [4] | IC50 (p-4E-BP1 at T70)
Cc1ccc2nc(-c3ccc(C4(N)CCC4)cc3)c(-c3ccccc3)n2n1 [Example 1, 1-[4-(6-Methyl-3-phenylimidazo[1,2-b]pyridazin-2-yl)phenyl]cyclobutanamine] | 1800 nM | 160 nM | 380 nM | 600 nM | 170 nM | –
CCc1ccc2nc(-c3ccc(C4(N)CCC4)cc3)c(-c3ccccc3)n2n1 [Example 2, 1-[4-(6-Ethyl-3-phenylimidazo[1,2-b]pyridazin-2-yl)phenyl]cyclobutanamine] | 1700 nM | 310 nM | 97 nM | 1700 nM | 65 nM | 2100 nM
CCOC(=O)c1ccc2nc(-c3ccc(C4(N)CCC4)cc3)c(-c3ccccc3)n2n1 [Example 4, Ethyl 2-[4-(1-aminocyclobutyl)phenyl]-3-phenylimidazo[1,2-b]pyridazine-6-carboxylate] | 2400 nM | 610 nM | 190 nM | 1800 nM | 85 nM | 2400 nM
COc1ccc2nc(-c3ccc(C4(N)CCC4)cc3)c(-c3ccccc3)n2n1 [Example 6, 1-[4-(6-Methyloxy-3-phenylimidazo[1,2-b]pyridazin-2-yl)phenyl]cyclobutanamine] | 1100 nM | 210 nM | 80 nM | 1200 nM | 4.2 nM | 1300 nM
COc1cc(Br)nn2c(-c3ccccc3)c(-c3ccc(C4(N)CCC4)cc3)nc12 [Example 7, 1-[4-(6-Bromo-8-methyloxy-3-phenylimidazo[1,2-b]pyridazin-2-yl)phenyl]-cyclobutanamine] | 250 nM | 27 nM | 9.7 nM | 410 nM | 6.9 nM | 1300 nM
NC1(c2ccc(-c3nc4ccc(C(=O)O)nn4c3-c3ccccc3)cc2)CCC1 [Example 8, 2-[4-(1-Aminocyclobutyl)phenyl]-3-phenylimidazo[1,2-b]pyridazine-6-carboxylic acid] | > 10000 nM | > 10000 nM | 400 nM | > 10000 nM | 450 nM | > 10000 nM
COc1cc(OC)c2nc(-c3ccc(C4(N)CCC4)cc3)c(-c3ccccc3)n2n1 [Example 9, 1-[4-(6,8-Dimethyloxy-3-phenylimidazo[1,2-b]pyridazin-2-yl)phenyl]-cyclobutanamine] | 770 nM | 36 nM | 18 nM | 340 nM | 3.9 nM | 690 nM
COc1cc(C(N)=O)nn2c(-c3ccccc3)c(-c3ccc(C4(N)CCC4)cc3)nc12 [Example 10, 2-[4-(1-Aminocyclobutyl)phenyl]-8-methoxy-3-phenylimidazo[1,2-b]-pyridazine-6-carboxamide] | 49 nM | 2.4 nM | 4.1 nM | 39 nM | 2.6 nM | 28 nM
COc1ccnn2c(-c3ccccc3)c(-c3ccc(C4(N)CCC4)cc3)nc12 [Example 11, 1-[4-(8-Methoxy-3-phenylimidazo[1,2-b]pyridazin-2-yl)phenyl]cyclobutanamine] | 630 nM | 14 nM | 110 nM | 470 nM | 130 nM | 160 nM
COc1cc(-c2cccnc2)c2nc(-c3ccc(C4(N)CCC4)cc3)c(-c3ccccc3)n2n1 [Example 14, 1-{4-[6-Methoxy-3-phenyl-8-(pyridin-3-yl)imidazo [1,2-b]pyridazin-2-yl]phenyl}cyclobutanamine] | 1900 nM | 220 nM | 65 nM | 1800 nM | 9.8 nM | 320 nM
CCc1cc(CC)c2nc(-c3ccc(C4(N)CCC4)cc3)c(-c3ccccc3)n2n1 [Example 16, 1-[4-(6,8-Diethyl-3-phenylimidazo[1,2-b]pyridazin-2-yl)phenyl]cyclobutanamine] | 2000 nM | 520 nM | 160 nM | 1800 nM | 160 nM | 2500 nM
NC1(c2ccc(-c3nc4ccc(Cl)nn4c3-c3ccccc3)cc2)CCC1 [Example 17, 1-[4-(6-Chloro-3-phenylimidazo[1,2-b]pyridazin-2-yl)phenyl]cyclobutanamine] | – | 12 nM | 92 nM | – | 43 nM | 430 nM
C=Cc1cc(OC)c2nc(-c3ccc(C4(N)CCC4)cc3)c(-c3ccccc3)n2n1 [Example 18, 1-[4-(8-Methoxy-3-phenyl-6-vinylimidazo[1,2-b]pyridazin-2-yl)phenyl]-cyclobutanamine] | 1600 nM | 180 nM | 53 nM | 1100 nM | 86 nM | 710 nM
NC1(c2ccc(-c3nc4c(-c5cc[nH]n5)cc(Cl)nn4c3-c3ccccc3)cc2)CCC1 [Example 19, 1-{4-[6-Chloro-3-phenyl-8-(1H-pyrazol-3-yl)imidazo[1,2-b]pyridazin-2-yl]phenyl} cyclobutanamine] | 2000 nM | 390 nM | 42 nM | 1800 nM | 15 nM | 5100 nM
C=Cc1cc(-c2cc[nH]n2)c2nc(-c3ccc(C4(N)CCC4)cc3)c(-c3ccccc3)n2n1 [Example 20, 1-{4-[3-Phenyl-8-(1H-pyrazol-3-yl)-6-vinylimidazo [1,2-b]pyridazin-2-yl]phenyl}cyclobutanamine] | 2600 nM | 520 nM | 170 nM | 1800 nM | 120 nM | 1500 nM
CCc1cc(-c2cc[nH]n2)c2nc(-c3ccc(C4(N)CCC4)cc3)c(-c3ccccc3)n2n1 [Example 21, 1-{4-[6-Ethyl-3-phenyl-8-(1H-pyrazol-3-yl)imidazo [1,2-b]pyridazin-2-yl]phenyl}cyclobutanamine] | 2000 nM | 420 nM | 130 nM | 1800 nM | 73 nM | 1700 nM
COC(=O)c1ccnn2c(-c3ccccc3)c(-c3ccc(C4(N)CCC4)cc3)nc12 [Example 31, Methyl 2-[4-(1-aminocyclobutyl)phenyl]-3-phenylimidazo[1,2-b]pyridazine-8-carboxylate] | 8400 nM | 1800 nM | 140 nM | 1400 nM | – | 4300 nM
NC(=O)c1cc(C(N)=O)c2nc(-c3ccc(C4(N)CCC4)cc3)c(-c3ccccc3)n2n1 [Example 34, 2-[4-(1-Aminocyclobutyl)phenyl]-3-phenylimidazo[1,2-b]pyridazine-6,8-dicarboxamide] | 1100 nM | 3.1 nM | 14 nM | 330 nM | – | 150 nM
Nc1ccc2nc(-c3ccc(C4(N)CCC4)cc3)c(-c3ccccc3)n2n1 [Example 35, 2-[4-(1-Aminocyclobutyl)phenyl]-3-phenylimidazo[1,2-b]pyridazin-6-amine] | 6100 nM | 190 nM | 1200 nM | 3000 nM | – | 1700 nM
NC1(c2ccc(-c3nc4c(C5CC5)cc(Cl)nn4c3-c3ccccc3)cc2)CCC1 [Example 46, 1-[4-(6-Chloro-8-cyclopropyl-3-phenylimidazo [1,2-b]pyridazin-2-yl)phenyl]cyclobutanamine] | 1900 nM | 430 nM | 85 nM | 1500 nM | – | 300 nM
Nc1ccnn2c(-c3ccccc3)c(-c3ccc(C4(N)CCC4)cc3)nc12 [Example 48, 2-[4-(1-Aminocyclobutyl)phenyl]-3-phenylimidazo[1,2-b]pyridazin-8-amine] | 1100 nM | 42 nM | 610 nM | 1300 nM | – | 29 nM
CNC(=O)c1cc(-c2ncc[nH]2)c2nc(-c3ccc(C4(N)CCC4)cc3)c(-c3ccccc3)n2n1 [Example 62, 2-[4-(1-Aminocyclobutyl)phenyl]-8-(1H-imidazol-2-yl)-N-methyl-3-phenylimidazo[1,2-b]pyridazine-6-carboxamide] | – | 0.4 nM | 62 nM | – | 16 nM | 35 nM
CNC(=O)c1cc(OCC2CC2)c2nc(-c3ccc(C4(N)CCC4)cc3)c(-c3ccccc3)n2n1 [Example 64, 2-[4-(1-Aminocyclobutyl)phenyl]-8-(cyclopropylmethoxy)-N-methyl-3-phenylimidazo[1,2-b]pyridazine-6-carboxamide] | 360 nM | 0.9 nM | 12 nM | 150 nM | – | 84 nM
NC1(c2ccc(-c3nc4c(-c5cc[nH]n5)cc(C(=O)O)nn4c3-c3ccccc3)cc2)CCC1 [Example 67, 2-[4-(1-Aminocyclobutyl)phenyl]-3-phenyl-8-(1H-pyrazol-3-yl)imidazo[1,2-b]-pyridazine-6-carboxylic acid] | – | > 10000 nM | 96 nM | – | 58 nM | > 10000 nM
NC1(c2ccc(-c3nc4ccc(C(=O)NCCO)nn4c3-c3ccccc3)cc2)CCC1 [Example 70, 2-[4-(1-Aminocyclobutyl)phenyl]-N-(2-hydroxyethyl)-3-phenylimidazo[1,2-b]pyridazine-6-carboxamide] | 2600 nM | 5.7 nM | 110 nM | 940 nM | – | 2400 nM
CCOc1ccc2nc(-c3ccc(C4(N)CCC4)cc3)c(-c3ccccc3)n2n1 [Example 78, 1-[4-(6-Ethoxy-3-phenylimidazo[1,2-b]pyridazin-2-yl)phenyl]cyclobutanamine] | – | 92 nM | 230 nM | – | 32 nM | 580 nM
